What was measured:
C57BL6/J mice = experiment: Short-term memory impairment caused by amyloid peptide aggregates (icv Aβ oligomers), Y maze test; format: in vivo, mouse; conditions: Y maze at day 4 post Aβ
Method: In vivo experiments were carried out according to the National Institute of Health guidelines for the care and use of laboratory animals, approved by the French Ministry for Research and Technology. In the course of experiments, animals were housed at a standard temperature (22±1° C.) and in a light-controlled environment (lights on from 7 a.m. to 8 p.m.) with ad libitum access to food and water. Male C57BL/6 mice (C57BL/6J Rj, ref. SC-CJ-12w-M, Janvier, France) were housed 5 animals per cage. From one week before the start of the experiment until the end of the experiment, mice were housed individually. Animals were monitored twice-a-day by laboratory personnel (8 a.m. and 4 p.m.). In this project, young (14 weeks old) as well as aged (15-16 months old) mice were used. Experiments were carried out using 12 mice per experimental group.
Investigation of short-term working memory—Y maze test Y maze tests were carried out as previously described. Prior to testing, mice were brought to the experimental room for at least 30 min to acclimatize to experimental room conditions. The Y maze is made of opaque Plexiglas and each arm is 40 cm long, 16 cm high, 9 cm wide and positioned at equal angles. The apparatus was placed in the test room in such a way that it was brightened homogeneously with 12-15 lux in the arms as well as in the central zone. One mouse at a time was placed at the end of one arm and was allowed to move in the maze freely during a 5 min examination. Each arm entry was recorded with those entries being counted where the mouse completely placed its hind paws in the chosen arm. […] Results were calculated as the percentage of the ratio of actual detected alternations to possible alternations (defined as the number of total arm entries minus 2).
For the examination of memory impairment caused by Aβ oligomers, a mouse model developed and validated by SynAging was used. […] At day 4 post Aβ treatment, short-term memory was assessed with the Y maze test. […]
At day 4 post Aβ treatment, short-term memory was assessed with the Y maze test.

Human 5-lipoxygenase = molecular target: T1, Human 5-lipoxygenase (Homo sapiens, UniProt P09917); experiment: 5-lipoxygenase enzyme activity, fluorescence measurement; format: biochemical
T1 construct: host or cells: Sf9 cells
T1 sequence (P09917 1-674): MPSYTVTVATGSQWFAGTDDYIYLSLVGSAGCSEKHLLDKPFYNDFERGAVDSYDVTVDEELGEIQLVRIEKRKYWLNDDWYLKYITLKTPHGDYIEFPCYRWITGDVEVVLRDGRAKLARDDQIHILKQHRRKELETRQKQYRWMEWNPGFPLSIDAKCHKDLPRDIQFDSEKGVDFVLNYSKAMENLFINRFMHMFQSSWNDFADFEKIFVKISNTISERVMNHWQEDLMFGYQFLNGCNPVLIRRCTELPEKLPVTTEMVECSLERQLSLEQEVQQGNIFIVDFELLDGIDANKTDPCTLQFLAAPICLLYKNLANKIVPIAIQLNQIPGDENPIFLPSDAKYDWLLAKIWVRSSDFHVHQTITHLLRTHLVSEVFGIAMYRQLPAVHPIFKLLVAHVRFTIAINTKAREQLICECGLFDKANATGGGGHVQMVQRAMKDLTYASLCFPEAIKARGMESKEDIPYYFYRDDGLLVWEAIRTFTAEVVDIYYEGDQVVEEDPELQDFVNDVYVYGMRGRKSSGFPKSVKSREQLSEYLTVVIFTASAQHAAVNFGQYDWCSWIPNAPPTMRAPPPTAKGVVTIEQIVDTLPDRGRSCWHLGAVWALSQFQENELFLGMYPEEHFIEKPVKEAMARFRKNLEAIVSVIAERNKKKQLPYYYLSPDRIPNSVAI
Method: Human 5-lipoxygenase produced by Sf9 cells was used throughout the experiments. The enzyme was pre-incubated with 10 μM compound according to Example 2 at room temperature, then—after the addition of 25 μM arachidonic acid substrate—the amount of generated rhodamine 123 was determined by fluorescence measurement. Percentage of inhibition rate was calculated by comparison to untreated control reactions.

Cc1ccnc(N[C@H](c2ccc(C(F)(F)F)cc2)c2ccc3cccnc3c2O)n1 [Example 2, 7-[(R)-[(4-Methylpyrimidin-2-yl)amino][4-(trifluoromethyl)phenyl]methyl]quinolin-8-ol]
inhibition of short-term memory impairment caused by fibrillar aggregates of amyloid peptides (C57BL6/J mice; 4 mg/kg body weight per os once daily for four days): inhibited
inhibition of short-term memory impairment caused by fibrillar aggregates of amyloid peptides, dose dependence (C57BL6/J mice; 0.5, 2 and 4 mg/kg body weight per os once daily for four days): in a dose-dependent manner
inhibition of 5-lipoxygenase enzyme (concentration range in words) (Human 5-lipoxygenase): inhibits in micromolar concentration
inhibition at 10 µM (Human 5-lipoxygenase; 10 μM concentration, 25 μM arachidonic acid substrate): 54%

— US10287265B2, “Enantiomers of 8-hydroxyquinoline derivatives and the synthesis thereof” (AVIDIN Co. Ltd., priority 2015, dated 2019)
